Laboratory results published in PubChem BioAssay (NCI).
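How tested: cells in 96-well plates exposed to compound for 48 hours at five concentrations. GI50 = concentration required for 50% inhibition of growth. TGI marks complete inhibition of growth.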

How the values were obtained:
Test in all cases: growth of human tumour cells (NCI), 48 h
HS 578T breast = tested on: HS 578T breast
NCI-H460 lung = tested on: NCI-H460 lung
HCC-2998 colon = tested on: HCC-2998 colon
MCF7 breast = tested on: MCF7 breast
M14 melanoma = tested on: M14 melanoma
HL-60(TB) leukemia = tested on: HL-60(TB) leukemia
RPMI-8226 leukemia = tested on: RPMI-8226 leukemia
DU-145 prostate = tested on: DU-145 prostate
IGROV1 ovarian = tested on: IGROV1 ovarian
SR leukemia = tested on: SR leukemia

Compound	TGI (HS 578T breast) [µM]	TGI (NCI-H460 lung) [µM]	TGI (HCC-2998 colon) [µM]	TGI (MCF7 breast) [µM]	TGI (M14 melanoma) [µM]	TGI (HL-60(TB) leukemia) [µM]	TGI (RPMI-8226 leukemia) [µM]	TGI (DU-145 prostate) [µM]	TGI (IGROV1 ovarian) [µM]	TGI (SR leukemia) [µM]	GI50 (HS 578T breast) [nM]	GI50 (NCI-H460 lung) [nM]	GI50 (HCC-2998 colon) [nM]	GI50 (MCF7 breast) [nM]	GI50 (M14 melanoma) [nM]	GI50 (HL-60(TB) leukemia) [nM]	GI50 (RPMI-8226 leukemia) [nM]	GI50 (DU-145 prostate) [nM]	GI50 (IGROV1 ovarian) [nM]	GI50 (SR leukemia) [nM]
C=C1c2nc3ccccc3n2C=C(c2ccc(C)cc2)N1c1ccc(OC)cc1	> 100	> 100	> 100	> 100	> 100	55.6	> 58.5	> 100	> 100	19.8	–	–	–	–	–	–	–	–	–	–
CCN(CC)C(=S)SC(C(=O)Nc1nnc(-c2ccc(Cl)cc2)o1)c1ccccc1 (stereo not given)	> 100	84.1	16.9	> 100	27.6	> 100	22	94	8.33	38.3	–	–	–	–	–	–	–	–	–	–
O=C(CNc1ccccc1C(=O)O)Nn1cnc2ccc(S(=O)(=O)Nc3ccccc3C(=O)O)cc2c1=O	> 100	> 100	> 100	> 100	> 100	> 100	> 100	> 100	> 100	> 100	–	–	–	–	–	–	–	–	–	–
CN(CCCCCl)P(=O)(OCc1ccc([N+](=O)[O-])o1)OCC1OC(n2ccc(N)nc2=O)C(O)C1O (stereo not given)	6.46	68.3	12.6	17	> 100	31.8	6.07	44.6	16.3	43.9	–	–	–	–	–	–	–	–	–	–
O=[N+]([O-])c1ccc(-n2nc3ccc4nonc4c3n2)cc1	50.1	> 100	> 100	> 100	> 100	> 100	> 100	> 100	> 100	> 100	–	–	–	–	–	–	–	–	–	–
O=C1[C@@H]2[C@@H](CN3CN(c4ccccc4)N=C(c4ccccc4)[C@@]23c2ccccc2)C(=O)N1c1ccccc1	> 65.8	50.4	> 100	4.04	9.73	6.33	12.4	24.7	29.5	> 100	–	–	–	–	–	–	–	–	–	–
COC1(CC[C@@H](C)COC2OC(CO)C(O)C(O)C2O)OC2C[C@H]3[C@@H]4CC[C@H]5C[C@@H](OC6OC(CO)C(OC7OC(CO)C(O)C(O)C7O)C(O)C6OC6OC(C)C(O)C(O)C6O)[C@H](O)C[C@]5(C)[C@H]4CC[C@]3(C)C2[C@@H]1C (stereo not given in full)	7.25	9.43	3.24	7.84	3.36	5.38	4.58	3.92	3.19	16.8	–	–	–	–	–	–	–	–	–	–
COc1cc2c(cc1OC)C(=O)N(c1ccc(OCCN3CCCC3)cc1)C2	> 100	> 100	> 100	> 100	> 100	> 100	> 100	> 100	> 100	> 100	–	–	–	–	–	–	–	–	–	–
CN1CCN(C(=O)c2cn(Cc3cncn3Cc3ccc4c(c3)OCO4)cc2-c2cccc3ccccc23)CC1	> 100	> 100	27	> 83.6	46	23.2	38.7	> 100	> 100	10.3	–	–	–	–	–	–	–	–	–	–
NC(=O)[C@H](Cc1ccc(O)cc1)Nc1c(O)c2c(c(O)c1Cl)C(=O)C=CC2=O	> 9.16	> 10	> 3.16	2.97	> 7	3.19	7	> 10	4.66	5.26	–	–	–	–	–	–	–	–	–	–
O=C(O)c1c(CC(Cc2ccc3c(c2)CCC3)C(=O)O)ccc2c1CCC2 (stereo not given)	> 100	> 100	> 100	> 100	> 100	> 100	> 100	> 100	> 100	> 100	–	–	–	–	–	–	–	–	–	–
O=C(O)C(Cc1ccccc1)NCc1c(O)ccc2c(-c3ccccc3)cc(=O)oc12 (stereo not given)	> 100	> 100	> 100	> 100	> 100	> 100	> 100	> 100	> 100	> 100	–	–	–	–	–	–	–	–	–	–
COC(=O)c1c2c(cc3c1CC1(Cc4cc5c(c(C=O)c4C1)CCC5)C3)CCC2 (stereo not given)	> 100	> 100	95.2	> 100	75.6	51.5	> 100	> 100	> 100	53.7	–	–	–	–	–	–	–	–	–	–
N#Cc1c(NC(=S)Nc2ccc(Cl)cc2)sc2c1CCN(N1CCc3c(sc(NC(=S)Nc4ccc(Cl)cc4)c3C#N)C1)C2	> 100	> 100	> 100	> 100	23.2	> 100	> 100	> 100	47.8	> 100	–	–	–	–	–	–	–	–	–	–
COc1cc(CCNC2=CC(=O)c3nc[nH]c3C2=O)ccc1O	72.8	> 100	43	33.5	33.5	60.8	68.7	34.6	52.8	98.4	–	–	–	–	–	–	–	–	–	–
O=C1c2cc3c(cc2-c2c1c1cc(F)c(F)cc1c(=O)n2CCCn1ccnc1)OCO3	> 100	0.199	> 100	1.39	> 100	16.6	0.673	> 100	> 100	16.6	1890	< 10	195	< 10	10.1	11.3	25.3	< 10	140	< 10
